Source: patent US20160318866A1, “SUBSTITUTED BIPIPERIDINYL DERIVATIVES” (Bayer Pharma Aktiengesellschaft, priority 2013, published 2016)
pIC50: −log10 of the molar value. Where a name gives a salt, the structure may show the parent alone.

Each compound was assayed against T1, human α2C receptor (Homo sapiens, UniProt P18825) (assay: Antagonism against the adrenoreceptor α2C (luminescence, recombinant CHO cell line)). Conditions: not given.
T1 construct: expressed in transfected cells; host or cells: CHO cells, also recombinantly expressing chimeric G protein Gαqi3 and mitochondrial obelin (mtOb)
T1 sequence (P18825 1-462): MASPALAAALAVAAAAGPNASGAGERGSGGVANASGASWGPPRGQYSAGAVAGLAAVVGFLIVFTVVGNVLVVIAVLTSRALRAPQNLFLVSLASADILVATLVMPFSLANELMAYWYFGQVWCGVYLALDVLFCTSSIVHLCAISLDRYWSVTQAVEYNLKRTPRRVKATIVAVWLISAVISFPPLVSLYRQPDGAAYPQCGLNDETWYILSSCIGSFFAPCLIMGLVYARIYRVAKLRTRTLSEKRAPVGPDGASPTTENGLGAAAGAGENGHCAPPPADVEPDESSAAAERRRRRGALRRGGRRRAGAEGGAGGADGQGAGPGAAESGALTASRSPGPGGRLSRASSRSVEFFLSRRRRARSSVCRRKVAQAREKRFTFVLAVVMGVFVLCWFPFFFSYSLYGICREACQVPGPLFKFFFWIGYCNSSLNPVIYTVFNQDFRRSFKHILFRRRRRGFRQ
Format: cell-based
Method: Antagonism against the adrenoreceptor α1A was tested using a recombinant human α1A receptor CHO cell line which additionally also recombinantly expresses mtAeq (mitochondrial aequorin). Antagonism against the adrenoreceptor α2A was tested using a recombinant human α2A-Gα16 receptor fusion protein CHO cell line (PerkinElmer Life Sciences) which additionally also recombinantly expresses mtAeq. Antagonism against the adrenoreceptor α2B was tested using a recombinant human α2B receptor CHO cell line (PerkinElmer Life Sciences) which additionally also recombinantly expresses mtAeq. Antagonism against the adrenoreceptor α2C was tested using a recombinant human α2C receptor CHO cell line which additionally also recombinantly expresses a chimaric G protein (Gαqi3) and mtOb (mitochondrial obelin).
The cells were cultivated at 37° C. and 5% CO2 in Dulbecco's modified Eagle's Medium/NUT mix F12 with L-glutamine which additionally contains 10% (v/v) inactivated foetal calf serum, 1 mM sodium pyruvate, 0.9 mM sodium bicarbonate, 50 U/ml penicillin, 50 μg/ml streptomycin, 2.5 μg/ml amphotericin B and 1 mg/ml Geneticin. The cells were passaged with enzyme-free Hank's-based cell dissociation buffer. All cell culture reagents used are from Invitrogen (Carlsbad, USA).
Luminescence measurements were carried out on white 384-well microtitre plates. 2000 cells/well were plated in a volume of 25 μl and cultivated for one day at 30° C. and 5% CO2 in cell culture medium with coelenterazine (α2A and α2B: 5 μg/ml; α1a/c and α2C: 2.5 μg/ml). Serial dilutions of the test substances (10 μl) were added to the cells. After 5 minutes, noradrenalinee was added to the cells (35 μl; final concentrations: 20 nM (α1a/c and α2C) or 200 nM (α2A and α2B)), and the emitted light was measured for 50 seconds using a CCD (charge-coupled device) camera (Hamamatsu Corporation, Shizuoka, Japan) in a light-tight box. The test substances were tested up to a maximum concentration of 10 μM. The IC50 values were calculated from the appropriate dose-response curves.

In the case of `CNCC1(c2ccc(C(=O)N3CCC(N4CCCC(C)C4)CC3)cc2)CCC1` (stereo not drawn) [Example 68, (4-{1-[(Methylamino)methyl]cyclobutyl}phenyl) (3-methyl-1,4′-bipiperidin-1′-yl)methanone trifluoroacetic acid salt], the pIC50 was 8.40.

Same assay, conditions: antagonism against adrenoreceptor α2C; noradrenaline 20 nM; tested up to 10 μM; read-out: IC50

Point of comparison: `CC1CCCN(C2CCN(C(=O)c3ccc(C4(CNC=O)CCC4)cc3)CC2)C1` (stereo not drawn) [Example 66, N-[(1-{4-[(3-Methyl-1,4′-bipiperidin-1′-yl)carbonyl]phenyl}cyclobutyl)methyl]formamide hydrochloride], pIC50 7.82. Against it:
- Cc1noc(C)c1NC(=O)c1ccc(C(=O)N2CCC(N3CCCC(C)C3)CC2)cc1 (stereo not drawn) [Example 56, N-(3,5-dimethyl-1,2-oxazol-4-yl)-4-[(3-methyl-1,4′-bipiperidin-1′-yl)carbonyl]benzamide] — 0.36 log units lower, 7.46
- CC1CCCN(C2CCN(C(=O)c3ccc(C4(CN(C)S(C)(=O)=O)CCC4)cc3)CC2)C1 (stereo not drawn) [Example 57, N-Methyl-N-[(1-{4-[(3-methyl-1,4′-bipiperidin-1′yl)carbonyl]phenyl}cyclobutyl)methyl]methanesulphonamide] — within 0.2 log units, 7.74
- COCC1CCCN(C2CCN(C(=O)c3ccc(C(C)(C)O)cc3)CC2)C1 (stereo not drawn) [Example 58, [4-(2-Hydroxypropan-2-yl)phenyl][3-(methoxymethyl)-1,4′-bipiperidin-1′-yl]methanone] — 0.22 log units lower, 7.60
- CC(C)(O)c1ccc(C(=O)N2CCC(N3CCCC(c4nnc(C5CC5)[nH]4)C3)CC2)cc1 (stereo not drawn) [Example 60, [3-(5-Cyclopropyl-4H-1,2,4-triazol-3-yl)-1,4′-bipiperidin-1′-yl][4-(2-hydroxypropan-2-yl)phenyl]methanone] — 0.47 log units lower, 7.35
- CC(C)(O)c1ccc(C(=O)N2CCC(N3CCCC(c4nc(C5CCC5)n[nH]4)C3)CC2)cc1 (stereo not drawn) [Example 61, [3-(5-Cyclobutyl-4H-1,2,4-triazol-3-yl)-1,4′-bipiperidin-1′-yl][4-(2-hydroxypropan-2-yl)phenyl]methanone] — 0.87 log units lower, 6.95
- CCc1nc(C2CCCN(C3CCN(C(=O)c4ccc(C(C)(C)O)cc4)CC3)C2)n[nH]1 (stereo not drawn) [Example 62, [3-(5-Ethyl-1H-1,2,4-triazol-3-yl)-1,4′-bipiperidin-1′-yl][4-(2-hydroxypropan-2-yl)phenyl]methanone] — 1.01 log units lower, 6.81
- Cc1n[nH]c(C2CCCN(C3CCN(C(=O)c4ccc(C(C)(C)O)cc4)CC3)C2)n1 (stereo not drawn) [Example 63, [4-(2-Hydroxypropan-2-yl)phenyl][3-(3-methyl-1H-1,2,4-triazol-5-yl)-1,4′-bipiperidin-1′-yl]methanone] — 0.93 log units lower, 6.89
- CC(C)(O)c1ccc(C(=O)N2CCC(N3CCCC(c4ncn[nH]4)C3)CC2)cc1 (stereo not drawn) [Example 64] — 1.41 log units lower, 6.41
- CC1CCCN(C2CCN(C(=O)c3ccc(C(C)(C)C(=O)NC(C)(C)C)cc3F)CC2)C1 (stereo not drawn) [Example 65, N-tert-Butyl-2-{3-fluoro-4-[(3-methyl-1,4′-bipiperidin-1′-yl)carbonyl]phenyl}-2-methylpropanamide] — 0.95 log units lower, 6.87
- CC1CCCN(C2CCN(C(=O)c3ccc(C4(CN(C)C=O)CCC4)cc3)CC2)C1 (stereo not drawn) [Example 67, N-Methyl-N-[(1-{4-[(3-methyl-1,4′-bipiperidin-1′-yl)carbonyl]phenyl}cyclobutyl)methyl]formamide trifluoroacetic acid salt] — 0.53 log units lower, 7.29
- CC(C)(O)c1ccc(C(=O)N2CCC(N3CCCC(c4nc(CC5CCC5)n[nH]4)C3)CC2)cc1 (stereo not drawn) [Example 69, {3-[5-(Cyclobutylmethyl)-4H-1,2,4-triazol-3-yl]-1,4′-bipiperidin-1′-yl}[4-(2-hydroxypropan-2-yl)phenyl]methanone] — 0.22 log units lower, 7.60
- CC1CCCN(C2CCN(C(=O)c3ccc(C(=O)NCc4cccc(OC(F)(F)F)c4)cc3)CC2)C1 (stereo not drawn) [Example 70, 4-[(3-Methyl-1,4′-bipiperidin-1′-yl)carbonyl]-N-[3-(trifluoromethoxy)benzyl]benzamide trifluoroacetic acid salt] — 1.10 log units lower, 6.72
- CC1CCCN(C2CCN(C(=O)c3ccc(C(=O)NC(C)(C)c4ccccc4)cc3)CC2)C1 (stereo not drawn) [Example 71, 4-[(3-Methyl-1,4′-bipiperidin-1′-yl)carbonyl]-N-(2-phenylpropan-2-yl)benzamide trifluoroacetic acid salt] — 0.63 log units lower, 7.19
- CC1CCCN(C2CCN(C(=O)c3ccc(C(=O)NC(C)(C)c4ccc(C(F)(F)F)cc4)cc3)CC2)C1 (stereo not drawn) [Example 72, 4-[(3-Methyl-1,4′-bipiperidin-1′-yl)carbonyl]-N-{2-[4-(trifluoromethyl)phenyl]propan-2-yl}benzamide trifluoroacetic acid salt] — 0.88 log units lower, 6.94
- CC1CCCN(C2CCN(C(=O)c3ccc(C(=O)NC(C)(C)c4ccc(Cl)c(Cl)c4)cc3)CC2)C1 (stereo not drawn) [Example 73, N-[2-(3,4-Dichlorophenyl)propan-2-yl]-4-[(3-methyl-1,4′-bipiperidin-1′-yl)carbonyl]benzamide trifluoroacetic acid salt] — 0.72 log units lower, 7.10
- Cc1cccnc1CNC(=O)c1ccc(C(=O)N2CCC(C3CCCC(C)C3)CC2)cc1 (stereo not drawn) [Example 74, 4-{[4-(3-Methylcyclohexyl)piperidin-1-yl]carbonyl}-N-[(3-methylpyridin-2-yl)methyl]benzamide trifluoroacetic acid salt] — 1.01 log units lower, 6.81
- CC1CCCN(C2CCN(C(=O)c3ccc(C(=O)NCc4ccnc(Cl)c4)cc3)CC2)C1 (stereo not drawn) [Example 75, N-[(2-Chloropyridin-4-yl)methyl]-4-[(3-methyl-1,4′-bipiperidin-1′-yl)carbonyl]benzamide trifluoroacetic acid salt] — 0.38 log units lower, 7.44
- CC1CCCN(C2CCN(C(=O)c3ccc(C(=O)NCc4cccc(Cl)n4)cc3)CC2)C1 (stereo not drawn) [Example 76, N-[(6-Chloropyridin-2-yl)methyl]-4-[(3-methyl-1,4′-bipiperidin-1′-yl)carbonyl]benzamide trifluoroacetic acid salt] — 1.47 log units lower, 6.35
- CC1CCCN(C2CCN(C(=O)c3ccc(C(=O)NC(C)(C)c4ccc(Cl)cc4)cc3)CC2)C1 (stereo not drawn) [Example 77, N-[2-(4-Chlorophenyl)propan-2-yl]-4-[(3-methyl-1,4′-bipiperidin-1′-yl)carbonyl]benzamide trifluoroacetic acid salt] — 0.55 log units lower, 7.27
- CC1CCCN(C2CCN(C(=O)c3ccc(C(=O)NC(C)(C)c4ccccc4Cl)cc3)CC2)C1 (stereo not drawn) [Example 78, N-[2-(2-Chlorophenyl)propan-2-yl]-4-[(3-methyl-1,4′-bipiperidin-1′-yl)carbonyl]benzamide trifluoroacetic acid salt] — 0.20 log units lower, 7.62
- CC1CCCN(C2CCN(C(=O)c3ccc(C(=O)NC(C)(C)c4cccc(Cl)c4)cc3)CC2)C1 (stereo not drawn) [Example 79, N-[2-(3-Chlorophenyl)propan-2-yl]-4-[(3-methyl-1,4′-bipiperidin-1′-yl)carbonyl]benzamide trifluoroacetic acid salt] — 0.55 log units lower, 7.27
- CC1CCCN(C2CCN(C(=O)c3ccc(C(=O)NC(C)(C)c4cc(Cl)cc(Cl)c4)cc3)CC2)C1 (stereo not drawn) [Example 80, N-[2-(3,5-Dichlorophenyl)propan-2-yl]-4-[(3-methyl-1,4′-bipiperidin-1′-yl)carbonyl]benzamide trifluoroacetic acid salt] — 1.00 log units lower, 6.82
- CC1CCCN(C2CCN(C(=O)c3ccc(C(=O)NCc4ccccc4C(F)(F)F)cc3)CC2)C1 (stereo not drawn) [Example 81, 4-[(3-Methyl-1,4′-bipiperidin-1′-yl)carbonyl]-N-[2-(trifluoromethyl)benzyl]benzamide trifluoroacetic acid salt] — 0.58 log units lower, 7.24
- C[C@@H]1CCCN(C2CCN(C(=O)c3ccc(C(=O)NCc4ncc(F)cc4F)cc3)CC2)C1 [Example 82, (R)—N-[(3,5-Difluoropyridin-2-yl)methyl]-4-{[(3R)-3-methyl-1,4′-bipiperidin-1′-yl]carbonyl}benzamide trifluoroacetic acid salt] — the same, 7.82
- C[C@@H]1CCCN(C2CCN(C(=O)c3ccc(C(=O)NCc4cccnc4Cl)cc3)CC2)C1 [Example 83, (R)—N-[(2-Chloropyridin-3-yl)methyl]-4-{[(3R)-3-methyl-1,4′-bipiperidin-1′-yl]carbonyl}benzamide trifluoroacetic acid salt] — 0.33 log units higher, 8.15
